In US20070117835A1, “Methods and compositions for treating Huntington's disease” (priority 2005, published 2007):
Entries after “also recorded” stand apart in the source; their conditions may differ.

Assays:
[1] = tested on: transgenic Drosophila engineered to express the mutant huntingtin protein in all their neurons; conditions: cited from earlier work
[2] = tested on: wildtype Drosophila fruit flies; test: Toxicity of dimebon in wild type Drosophila (eclosion number and timing); format: in vivo; conditions: FIG. 1
Experimental: Dimebon was evaluated for toxicity levels in wildtype Drosophila fruit flies. Dimebon was administered daily at doses ranging from 10 μM to 1 mM to explore its toxicity. An untreated control group was also studied in this experiment. The concentrations given were concentrations of dimebon in the food that animals drink/eat ad libitum. The food consisted of cornmeal (61.2 g), dextrose (129.4. g), yeast (32.4 g) and agar (9.3 g) in 1 liter of water. Concentrated compounds were added to melted agar food cooled to just above the point of setting (about 40° C.), mixed and dispensed.
About 500 wild type Drosophila eggs were collected on grape juice plates for 20 hours, washed with distilled water and transferred 100 per vial to grow at 25 degrees C. The adult progeny were scored after eclosing (emerging from the pupal case) beginning 10 days later to assess developmental delay and toxicity. The criteria used for toxicity were the number (%) of animals that eclose and the time of the eclosing. For example, fewer animals may emerge from the pupal case if a drug is toxic or the same number of animals may eclose but more slowly than the untreated control group.
The toxicity test employed five concentrations (10 μM, 30 μM, 100 μM, 300 μM, 1 mM) plus an untreated control and was repeated with five sets of flies. […]

[3] = tested on: transgenic Drosophila engineered to express the mutant huntingtin protein in all their neurons; test: Climbing assay (motor function) in Drosophila model of Huntington's disease; format: in vivo
Experimental: The motor function of Drosophila obtained as described in the examples above was assessed by exploiting the strong negative geotropism of flies to climb upwards when they are tapped to the bottom of a vial. See, Le Bourg and Lint (1992) Hypergravity and aging in Drosophila melanogaster. 4. […] activity. Gerontology 38, 59-64. Animals were placed in a graduated vessel (e.g., a measuring cylinder). The distance climbed in 10 seconds was measured for each animal over 3 trials with a 5 minute rest period. In a separate experiment using tall thin plastic tubes rather than glass vials, the distance climbed in 30 seconds was also measured. Animals were scored for outcome without knowledge of treatment group. Flies were tested for functional rescue using a behavior assay (climbing assay) where the distance climbed was measured. […] In this assay, climbing was scored blind and each animal was given 3 trials that were then averaged. The climbing of 7 day old animals reared on 0, 10, 100 or 1,000 μM containing food was compared as was the climbing of animals on the day of eclosion. Two trials were performed. In the first, the ability to climb in large glass vials was monitored over 10 seconds. […] The second trial was similar to the first except that animals were tested in tall thin plastic tubes for climbing over 30 seconds. […] The data from the two independent climbing trials are plotted as individual data points in FIGS. 6A and 6B. A higher statistical power (e.g., 0.8) given the observed standard deviations and differences of the means may be achieved by doubling the size of the experiment for the highest concentration and increasing about 10 fold for the lower concentrations.

[4] = tested on: transgenic Drosophila engineered to express the mutant huntingtin protein in all their neurons; test: Inhibition of mutant huntingtin-induced neurodegeneration of photoreceptor neurons (pseudopupil method); format: in vivo; conditions: for rescue of photoreceptor neurons compared to untreated controls: FIG. 2; for suppression of photoreceptor neuron degeneration, retest: FIG. 3
Experimental: Dimebon was administered to one group of transgenic Drosophila engineered to express the mutant huntingtin protein in all their neurons. This was accomplished by cloning a foreign gene into transposable p-element DNA vectors under control of a yeast upstream activator sequence that is activated by the yeast GAL4 transcription factor. These promoter fusions were injected into fly embryos to produce transgenic animals. The foreign gene is silent until crossed to another transgenic strain of flies expressing the GAL4 gene in a tissue specific manner. The Elav>Gal4 which expresses the transgene in all neurons from birth until death was used in the experiments described.
For compound testing, 20-30 Httex1pQ93 virgins were mated to elav>Gal4 males and eggs were collected for about 20 hours at 25° C. and dispensed into vials (expected about 70% lethality from Htt effects). Upon eclosion, at least 80, 0-8 hour old flies were harvested and place on drug-containing food (20 eclosed adults per vial) and scored when 7 days old. Inhibitor-containing food was prepared just before tester flies began to emerge.
The two types of transgenic animals were crossed in order to collect enough closely matched aged controls to study. The crossed aged-matched adults (about 20 per dosing group) were placed on drug-containing food for 7 days. Animals were transferred to fresh food daily to minimize any effects caused by instability of the compounds. Survival was scored daily. The average number of photoreceptors at day zero was determined by scoring 7-10 of the newly eclosed tester siblings within six hours of eclosing. This established the baseline of degeneration at the time of exposure to drug. At day 7, animals were sacrificed and the number of photoreceptor neurons surviving was counted. […] For pseudopupil analysis, flies were decapitated and the heads are mounted in a drop of nail polish on a microscopic slide. The head was then covered with immersion oil and light is projected through the eye of the fly using a Nikon EFD-3/Optiphot-2 compound microscope with a 50× oil objective.

Structure (SMILES) | rescue of photoreceptor neurons (historical positive control) [1] | timing of emergence slowed ([2]; 1 mM dose) | toxicity (number of animals that eclose and time of eclosing) ([2]; 10 to 300 μM in the food, below 1 mM, dihydrochloride) | climbing behavior, distance climbed in 10 seconds ([3]; 1 mM (1000 μM), 7 day old animals, glass vials, FIG. 5, dihydrochloride) | raw climbing data, FIG. 6 panel A ([3]; 1 mM vs D7ND (Day 7 no drug), legend says measured over 30 seconds) | climbing behavior, distance climbed in 30 seconds ([3]; 10, 100 or 1,000 μM, 7 day old animals, tall thin plastic tubes) | rescue of photoreceptor neurons compared to untreated controls ([4]; 10 μM, 7 days) | suppression of photoreceptor neuron degeneration, retest ([4]; 100 μM vs zero drug controls, dihydrochloride) | rescue of photoreceptor neurons compared to untreated controls ([4]; 100 μM, 7 days on drug-containing food) | rescue of photoreceptor neurons compared to untreated controls ([4]; 1 mM, 7 days) | previously measured optimum concentration for photoreceptor rescue ([4]; concentration in food) [µM] | protection of photoreceptors, dose dependence ([4]; day 7, pseudopupil scoring) | suppression of photoreceptor neuron degeneration, retest ([4]; higher doses (300 or 1,000 μM) vs zero drug controls)
C[C@@H](N)[C@H]1CC[C@H](C(=O)Nc2ccncc2)CC1 [Y-27632] | strongly rescuing | – | – | – | – | – | – | – | – | – | – | – | –
Cc1ccc2c(c1)c1c(n2CCc2ccc(C)nc2)CCN(C)C1.Cl.Cl [dimebon, 2,8-dimethyl-5-(2-(6-methyl-3-pyridyl)-ethyl)-2,3,4,5-tetrahydro-1H-pyrido[4,3-b]indole dihydrochloride] | – | approximately 1 day | generally well tolerated; also recorded: no significant toxicity | significant difference between the control and 1000 μM; also recorded: statistically significant improvement in climbing | statistical difference between D7ND and 1 mM | no statistically demonstrable difference between treated and control groups | lesser but still apparent rescue of neurons | significant improvement; also recorded: significant rescue | statistically significant (p=0.0014) rescue of neurons | still appeared to cause neuronal rescue, but to a lesser extent than the 100 μM or 10 μM dimebon doses | 100 | protect photoreceptors in a dose-dependant manner | no statistically demonstrable improvement
